# Experimental data taken from ChEMBL document CHEMBL5113500, “New brefeldin A-cinnamic acid ester derivatives as potential antitumor agents: Design, synthesis and biological evaluation” (Eur J Med Chem, 2022).
# Active and inactive are the calls of the source. The calls are words filed in the database; no cut-off is given here.
# Experiments:
# Bel-7402 [1] = assay: Inhibition of colony formation in human Bel-7402 cells at 2 uM treated every 3 days for 14 days by crystal violet staining based assay; format: functional, cell-based; details: time 14.0 day
# HepG2 [2] = assay: Induction of apoptosis in human HepG2 cells assessed as late apoptotic cells at 0.4 uM measured after 48 hrs by Annexin V-FITC/propidium iodide staining based flow cytometry (reference value: 1.66%); format: functional
# HepG2 [3] = assay: Induction of apoptosis in human HepG2 cells assessed as increase in cleaved PARP expression at 0.2 to 0.8 uM measured after 48 hrs by Western blot analysis; format: functional, cell-based; details: dose 0.2-0.8 µM
# Bel-7402 [4] = assay: Cell cycle arrest in human Bel-7402 cells assessed as accumulation at G1 phase at 2 uM measured after 24 hrs by propidium iodide staining based flow cytometry (reference value: 38.72%); format: functional
# [5] = Acute toxicity in ICR mouse assessed as change in ALP level at 100 mg/kg, ip measured after 6 days; format: organism-based; details: in vivo, 144 h, time 6 day
# HepG2 [6] = assay: Induction of apoptosis in human HepG2 cells assessed as chromatin shrinkage at 0.2 to 0.8 uM measured after 48 hrs by Hoechst 33342 staining based fluorescence microscopy; format: functional, cell-based; details: dose 0.2-0.8 µM
# [7] = Volume of distribution at steady state in ICR mouse at 10 mg/kg, iv; format: ADME, organism-based; details: in vivo, read-out: Vdss
# HepG2 [8] = assay: Induction of apoptosis in human HepG2 cells assessed as late apoptotic cells at 0.8 uM measured after 48 hrs by Annexin V-FITC/propidium iodide staining based flow cytometry (reference value: 1.66%); format: functional
# [9] = Acute toxicity in ICR mouse assessed as change in ALT level at 100 mg/kg, ip measured after 6 days; format: organism-based; details: in vivo, 144 h, time 6 day
# HepG2 [10] = assay: Antitumor activity against human HepG2 cells xenografted in BALB/c nude mouse assessed as reduction in tumor weight at 5 to 10 mg/kg, ip administered once daily for 16 days measured post-last dose; format: functional, organism-based; details: dose 5-10 mg/kg, time 16.0 day
# HepG2 [11] = assay: Antitumor activity against human HepG2 cells xenografted in BALB/c nude mouse assessed as increase in cleaved caspase-3 expression at 5 to 10 mg/kg, ip administered once daily for 16 days measured post-last dose by immunohistochemical analysis; format: functional, organism-based; details: dose 5-10 mg/kg, time 16.0 day
# HepG2 [12] = assay: Induction of apoptosis in human HepG2 cells assessed as viable cells at 0.8 uM measured after 48 hrs by Annexin V-FITC/propidium iodide staining based flow cytometry (reference value: 94.5%); format: functional; details: read-out: Activity
# Bel-7402 [13] = assay: Cell cycle arrest in human Bel-7402 cells assessed as accumulation at G1 phase at 0.5 uM measured after 24 hrs by propidium iodide staining based flow cytometry (reference value: 38.72%); format: functional
# [14] = Terminal half life in ICR mouse at 10 mg/kg, iv; format: ADME, organism-based; details: in vivo, read-out: beta t1/2 (converted)
# HepG2 [15] = assay: Antiproliferative activity against human HepG2 cells measured after 72 hrs by MTT assay; format: functional, cell-based; details: HepG2, 72 h
# Bel-7402 [16] = assay: Cell cycle arrest in human Bel-7402 cells assessed as accumulation at G1 phase at 1 uM measured after 24 hrs by propidium iodide staining based flow cytometry (reference value: 38.72%); format: functional
# ECa-109 cell line = assay: Antiproliferative activity against human Eca-109 cells measured after 72 hrs by MTT assay; format: functional, cell-based; details: ECa-109, 72 h
# [17] = Acute toxicity in ICR mouse assessed as change in blood urea nitrogen level at 100 mg/kg, ip measured after 6 days; format: organism-based; details: in vivo, 144 h, time 6 day
# [18] = Acute toxicity in ICR mouse assessed as body weight loss at 809 mg/kg, po measured for 6 days; format: organism-based; details: in vivo, 144 h, time 6 day
# HeLa = assay: Antiproliferative activity against human HeLa cells measured after 72 hrs by MTT assay; format: functional, cell-based
# [19] = Acute toxicity in ICR mouse assessed as pathological change in heart at 100 mg/kg, ip measured after 6 days; format: organism-based; details: in vivo, 144 h, time 6 day
# [20] = molecular target: ADP-ribosylation factor 1 (Homo sapiens) (UniProt P84077); assay: Binding affinity to Arf1 in human HepG2 cell lysate assessed as change in denaturation temperature at 25 uM measured after 3 mins by CETSA; format: subcellular
# Sequence of ADP-ribosylation factor 1 (Homo sapiens) (P84077 whole entry): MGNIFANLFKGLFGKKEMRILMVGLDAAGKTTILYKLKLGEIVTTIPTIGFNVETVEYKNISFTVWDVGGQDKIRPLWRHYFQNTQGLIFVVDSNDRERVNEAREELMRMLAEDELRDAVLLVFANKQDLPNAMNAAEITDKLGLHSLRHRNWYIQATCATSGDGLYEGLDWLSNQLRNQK
# [21] = Cmax in ICR mouse at 10 mg/kg, iv; format: ADME, organism-based; set-up: dose 10 mg/kg, route iv; details: in vivo
# [22] = Clearance in ICR mouse at 10 mg/kg, iv; format: ADME, organism-based; details: in vivo
# [23] = Selectivity index, ratio of IC50 for human L02 cells to IC50 for human HepG2 cells; format: toxicity; details: L02 cells and HepG2 cells, read-out: Ratio IC50
# HepG2 [24] = assay: Cell cycle arrest in human HepG2 cells assessed as accumulation at S phase at 0.4 uM measured after 24 hrs by propidium iodide staining based flow cytometry (reference value: 32.81%); format: functional
# HepG2 [25] = assay: Induction of apoptosis in human HepG2 cells assessed as necrotic cells at 0.2 uM measured after 48 hrs by Annexin V-FITC/propidium iodide staining based flow cytometry (reference value: 2.04%); format: functional
# Bel-7402 [26] = assay: Inhibition of colony formation in human Bel-7402 cells assessed as reduction in colony size at 0.5 to 2 uM treated every 3 days for 14 days by crystal violet staining based microscopy; format: functional, cell-based; details: dose 0.5-2 µM, time 14.0 day
# HepG2 [27] = assay: Inhibition of colony formation in human HepG2 cells at 0.4 to 0.8 uM treated every 3 days for 14 days by crystal violet staining based assay; format: functional, cell-based; details: dose 0.4-0.8 µM, time 14.0 day
# [28] = Acute toxicity in ICR mouse assessed as pathological change in liver at 100 mg/kg, ip measured after 6 days; format: organism-based; details: in vivo, 144 h, time 6 day
# HepG2 [29] = assay: Antiproliferative activity against human HepG2 cells assessed as cell growth inhibition at 1 uM measured after 72 hrs by MTT assay relative to control; format: functional; details: read-out: GI
# HepG2 [30] = assay: Cell cycle arrest in human HepG2 cells assessed as accumulation at S phase at 0.2 uM measured after 24 hrs by propidium iodide staining based flow cytometry (reference value: 32.81%); format: functional
# [31] = Acute toxicity in ICR mouse assessed as pathological change in lung at 100 mg/kg, ip measured after 6 days; format: organism-based; details: in vivo, 144 h, time 6 day
# HepG2 [32] = assay: Cell cycle arrest in human HepG2 cells assessed as accumulation at S phase at 0.8 uM measured after 24 hrs by propidium iodide staining based flow cytometry (reference value: 32.81%); format: functional
# [33] = Solubility of the compound in 5% DMSO and 10% Solutol HS-15 saline solution; format: physicochemical
# HepG2 [34] = assay: Induction of apoptosis in human HepG2 cells assessed as necrotic cells at 0.4 uM measured after 48 hrs by Annexin V-FITC/propidium iodide staining based flow cytometry (reference value: 2.04%); format: functional
# HepG2 [35] = assay: Cell cycle arrest in human HepG2 cells assessed as accumulation at G1 phase at 0.8 uM measured after 24 hrs by propidium iodide staining based flow cytometry (reference value: 42.27%); format: functional
# [36] = Acute toxicity in ICR mouse assessed as change in urea level at 100 mg/kg, ip measured after 6 days; format: organism-based; details: in vivo, 144 h, time 6 day
# [37] = Acute toxicity in ICR mouse assessed as change in AST level at 100 mg/kg, ip measured after 6 days; format: organism-based; details: in vivo, 144 h, time 6 day
compound,measurement,setting,value
C[C@H]1CCC/C=C/[C@@H]2C[C@H](O)C[C@H]2[C@H](OC(=O)/C=C/c2ccc(N(C)C)cc2)/C=C/C(=O)O1,inhibition,Bel-7402 [1],Active
same,Activity,HepG2 [2],3.9%
same,Activity,HepG2 [3],Active
same,Activity,Bel-7402 [4],60.5%
same,Activity,[5],Non-Toxic
same,Activity,HepG2 [6],Active
same,Vd,[7],0.852 L/kg
same,Activity,HepG2 [8],4.24%
same,Activity,[9],Non-Toxic
same,Activity,HepG2 [10],Active
same,Activity,HepG2 [11],Active
same,viability at 0.8 µM,HepG2 [12],54.4%
same,Activity,Bel-7402 [13],51.26%
same,half-life,[14],2.08 h
same,IC50,HepG2 [15],290 nM
same,Activity,Bel-7402 [16],54.21%
same,IC50,ECa-109 cell line,1770 nM
same,Activity,[17],Non-Toxic
same,Activity,[18],Toxic
same,IC50,HeLa,860 nM
same,Activity,[19],Non-Toxic
same,Activity,[20],Active
same,Cmax,[21],14400 ng/mL
same,clearance,[22],42.5 mL/min/kg
same,selectivity ratio,[23],9.69
same,Activity,HepG2 [24],21.37%
same,Activity,HepG2 [25],28.85%
same,inhibition,Bel-7402 [26],Active
same,inhibition,HepG2 [27],Active
same,Activity,[28],Non-Toxic
same,inhibition of growth at 1 µM,HepG2 [29],92.1%
same,Activity,HepG2 [30],29.24%
same,Activity,[31],Non-Toxic
same,Activity,HepG2 [32],23.25%
same,solubility,[33],2500 µg/mL
same,Activity,HepG2 [34],41.57%
same,Activity,HepG2 [35],60.9%
same,Activity,[36],Non-Toxic
same,Activity,[37],Non-Toxic
